IC50 and pKa data for seven compounds are collected here from ChEMBL document CHEMBL1125999 (Bioorg Med Chem Lett, 1991).

One data set has as its target D(1A) dopamine receptor (Bos taurus, UniProt Q95136). Kind of data set: In vitro binding affinity towards Dopamine D1 receptor using [3H]-SCH- 23390 as radioligand.
A further data set concerns the target D(2) dopamine receptor (Bos taurus, UniProt P20288). The data set can be described thus: In vitro binding affinity towards Dopamine D2 receptor using [3H]spiperone as radioligand.
Data set [1] can be described thus: Dissociation constant was evaluated. It counts as physicochemical.

D(2) dopamine receptor, sequence (P20288 whole entry): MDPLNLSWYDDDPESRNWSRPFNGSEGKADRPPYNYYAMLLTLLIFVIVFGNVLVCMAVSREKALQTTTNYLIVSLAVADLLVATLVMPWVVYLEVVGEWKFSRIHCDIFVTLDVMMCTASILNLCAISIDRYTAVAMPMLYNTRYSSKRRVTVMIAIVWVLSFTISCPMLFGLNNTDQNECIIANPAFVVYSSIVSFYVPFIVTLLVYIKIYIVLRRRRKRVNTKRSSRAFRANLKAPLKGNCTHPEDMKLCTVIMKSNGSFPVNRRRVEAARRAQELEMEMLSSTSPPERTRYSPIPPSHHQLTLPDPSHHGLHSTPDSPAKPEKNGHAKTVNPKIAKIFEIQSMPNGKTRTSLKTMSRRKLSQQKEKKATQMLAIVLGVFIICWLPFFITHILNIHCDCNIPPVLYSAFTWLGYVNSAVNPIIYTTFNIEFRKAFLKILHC
D(1A) dopamine receptor, sequence (Q95136 whole entry): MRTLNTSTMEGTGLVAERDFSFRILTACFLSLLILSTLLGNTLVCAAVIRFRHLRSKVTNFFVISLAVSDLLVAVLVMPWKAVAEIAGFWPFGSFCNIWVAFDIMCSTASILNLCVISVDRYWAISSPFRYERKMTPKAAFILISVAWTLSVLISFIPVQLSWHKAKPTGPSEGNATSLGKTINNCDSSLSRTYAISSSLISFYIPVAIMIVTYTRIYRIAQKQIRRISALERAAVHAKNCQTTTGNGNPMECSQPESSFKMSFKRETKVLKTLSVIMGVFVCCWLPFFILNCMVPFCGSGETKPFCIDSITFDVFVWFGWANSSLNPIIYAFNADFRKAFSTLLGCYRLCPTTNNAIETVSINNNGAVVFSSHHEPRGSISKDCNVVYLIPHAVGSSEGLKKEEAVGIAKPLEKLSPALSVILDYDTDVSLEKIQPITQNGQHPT

As for `NCCc1ccc(O)c(O)c1` [DOPAMINE], on D(1A) dopamine receptor, the IC50 was found to be 0.2 µM.

Take `CCCN(CCC)CCc1ccc2nn[nH]c2c1`: the IC50 at D(1A) dopamine receptor is > 100 µM; at D(2) dopamine receptor, 50 µM.

On to `CCCN(CCC)CCc1ccc2[nH]c(=O)c(=O)[nH]c2c1`, for which the pKa in data set [1] came out at 9.5. In addition, the results for the IC50 on D(1A) dopamine receptor and at D(2) dopamine receptor were > 100 µM and 3 µM, respectively.

For `CCCN(CCC)CCc1ccc2[nH]c(S)nc2c1`, in data set [1], the pKa is 9.8. Moreover, the results for the IC50 at D(1A) dopamine receptor and on D(2) dopamine receptor were > 100 µM and 1 µM, respectively.

Regarding `CCCN(CCC)CCc1ccc(NC(=O)C(F)(F)F)c(NC(=O)C(F)(F)F)c1`, the IC50 on D(1A) dopamine receptor and at D(2) dopamine receptor was > 100 µM throughout.

With `CCCN(CCC)CCc1ccc(NC(C)=O)c(NC(C)=O)c1`, the IC50 on D(1A) dopamine receptor and at D(2) dopamine receptor was > 100 µM each time.

For `CCCN(CCC)CCc1ccc2[nH]c(O)nc2c1`, the IC50 at D(1A) dopamine receptor and on D(2) dopamine receptor was > 100 µM each time.
